Test results from ChEMBL document CHEMBL3045679, “Microwave-assisted synthesis and pharmacological studies of novel 5-deazaalloxazine derivatives” (2012).
In brackets after ≈: the same amount, converted by molar mass. Activity calls are given as the source filed them. The rule behind the calls is not given here.

Key:
Candida albicans [1] = assay: Antifungal activity against Candida albicans NCIM 3471 at 10 ug/disk after 72 hr by disk diffusion method; format: functional; settings: NCIM 3471, 72 h, read-out: DIZ
Rhodotorula mucilaginosa [2] = assay: Antifungal activity against Rhodotorula mucilaginosa NCIM 3174 at 10 ug/disk after 72 hr by disk diffusion method; format: functional; settings: NCIM 3174, 72 h, read-out: DIZ
Aspergillus flavus [3] = assay: Antifungal activity against Aspergillus flavus NCIM 535 at 10 ug/disk after 72 hr by disk diffusion method; format: functional; settings: NCIM 535, 72 h, read-out: DIZ
Aspergillus niger [4] = assay: Antifungal activity against Aspergillus niger NCIM 1196 at 10 ug/disk after 72 hr by disk diffusion method; format: functional; settings: NCIM 1196, 72 h, read-out: DIZ
Penicillium chrysogenum [5] = assay: Antifungal activity against Penicillium chrysogenum NCIM 707 at 10 ug/disk after 72 hr by disk diffusion method; format: functional; settings: NCIM 707, 72 h, read-out: DIZ
Lipomyces lipofer [6] = assay: Antifungal activity against Lipomyces lipofer NCIM 3252 at 10 ug/disk after 72 hr by disk diffusion method; format: functional; settings: NCIM 3252, 72 h, read-out: DIZ
Lipomyces lipofer [7] = assay: Antifungal activity against Lipomyces lipofer NCIM 3252 at 1000 ug/disk after 72 hr by disk diffusion method; format: functional; settings: NCIM 3252, 72 h, read-out: DIZ
Lipomyces lipofer [8] = assay: Antifungal activity against Lipomyces lipofer NCIM 3252 at 500 ug/disk after 72 hr by disk diffusion method; format: functional; settings: NCIM 3252, 72 h, read-out: DIZ
Candida albicans [9] = assay: Antifungal activity against Candida albicans NCIM 3471 at 1000 ug/disk after 72 hr by disk diffusion method; format: functional; settings: NCIM 3471, 72 h, read-out: DIZ
Candida albicans [10] = assay: Antifungal activity against Candida albicans NCIM 3471 at 500 ug/disk after 72 hr by disk diffusion method; format: functional; settings: NCIM 3471, 72 h, read-out: DIZ
Rhodotorula mucilaginosa [11] = assay: Antifungal activity against Rhodotorula mucilaginosa NCIM 3174 at 1000 ug/disk after 72 hr by disk diffusion method; format: functional; settings: NCIM 3174, 72 h, read-out: DIZ
Rhodotorula mucilaginosa [12] = assay: Antifungal activity against Rhodotorula mucilaginosa NCIM 3174 at 500 ug/disk after 72 hr by disk diffusion method; format: functional; settings: NCIM 3174, 72 h, read-out: DIZ
Aspergillus flavus [13] = assay: Antifungal activity against Aspergillus flavus NCIM 535 at 1000 ug/disk after 72 hr by disk diffusion method; format: functional; settings: NCIM 535, 72 h, read-out: DIZ
Aspergillus flavus [14] = assay: Antifungal activity against Aspergillus flavus NCIM 535 at 500 ug/disk after 72 hr by disk diffusion method; format: functional; settings: NCIM 535, 72 h, read-out: DIZ
Aspergillus niger [15] = assay: Antifungal activity against Aspergillus niger NCIM 1196 at 1000 ug/disk after 72 hr by disk diffusion method; format: functional; settings: NCIM 1196, 72 h, read-out: DIZ
Aspergillus niger [16] = assay: Antifungal activity against Aspergillus niger NCIM 1196 at 500 ug/disk after 72 hr by disk diffusion method; format: functional
Penicillium chrysogenum [17] = assay: Antifungal activity against Penicillium chrysogenum NCIM 707 at 1000 ug/disk after 72 hr by disk diffusion method; format: functional; settings: NCIM 707, 72 h, read-out: DIZ
Penicillium chrysogenum [18] = assay: Antifungal activity against Penicillium chrysogenum NCIM 707 at 500 ug/disk after 72 hr by disk diffusion method; format: functional; settings: NCIM 707, 72 h, read-out: DIZ
Streptomyces albus [19] = assay: Antibacterial activity against Streptomyces albus NCIM 2178 at 1000 ug/disk after 24 hr by disk diffusion method; format: functional; settings: NCIM 2178, 24 h, read-out: DIZ
Streptomyces albus [20] = assay: Antibacterial activity against Streptomyces albus NCIM 2178 at 500 ug/disk after 24 hr by disk diffusion method; format: functional, organism-based
Bacillus cereus [21] = assay: Antibacterial activity against Bacillus cereus NCIM 2155 at 1000 ug/disk after 24 hr by disk diffusion method; format: functional; settings: NCIM 2155, 24 h, read-out: DIZ
Bacillus cereus [22] = assay: Antibacterial activity against Bacillus cereus NCIM 2155 at 500 ug/disk after 24 hr by disk diffusion method; format: functional; settings: NCIM 2155, 24 h, read-out: DIZ
Bacillus subtilis [23] = assay: Antibacterial activity against Bacillus subtilis NCIM 2063 at 1000 ug/disk after 24 hr by disk diffusion method; format: functional; settings: NCIM 2063, 24 h, read-out: DIZ
Bacillus subtilis [24] = assay: Antibacterial activity against Bacillus subtilis NCIM 2063 at 500 ug/disk after 24 hr by disk diffusion method; format: functional; settings: NCIM 2063, 24 h, read-out: DIZ
Klebsiella aerogenes [25] = assay: Antibacterial activity against Enterobacter aerogenes NCIM 2239 at 1000 ug/disk after 24 hr by disk diffusion method; format: functional; settings: NCIM 2239, 24 h, read-out: DIZ
Klebsiella aerogenes [26] = assay: Antibacterial activity against Enterobacter aerogenes NCIM 2239 at 500 ug/disk after 24 hr by disk diffusion method; format: functional; settings: NCIM 2239, 24 h, read-out: DIZ
Pseudomonas aeruginosa [27] = assay: Antibacterial activity against Pseudomonas aeruginosa NCIM 2200 at 1000 ug/disk after 24 hr by disk diffusion method; format: functional; settings: NCIM 2200, 24 h, read-out: DIZ
Pseudomonas aeruginosa [28] = assay: Antibacterial activity against Pseudomonas aeruginosa NCIM 2200 at 500 ug/disk after 24 hr by disk diffusion method; format: functional; settings: NCIM 2200, 24 h, read-out: DIZ
Escherichia coli [29] = assay: Antibacterial activity against Escherichia coli NCIM 2065 at 1000 ug/disk after 24 hr by disk diffusion method; format: functional; settings: NCIM 2065, 24 h, read-out: DIZ
Escherichia coli [30] = assay: Antibacterial activity against Escherichia coli NCIM 2065 at 500 ug/disk after 24 hr by disk diffusion method; format: functional
Bacillus subtilis [31] = assay: Antibacterial activity against Bacillus subtilis NCIM 2063 after 24 hr by broth dilution assay; format: functional; settings: NCIM 2063, 24 h
Klebsiella aerogenes [32] = assay: Antibacterial activity against Enterobacter aerogenes NCIM 2239 after 24 hr by broth dilution assay; format: functional; settings: NCIM 2239, 24 h
Pseudomonas aeruginosa [33] = assay: Antibacterial activity against Pseudomonas aeruginosa NCIM 2200 after 24 hr by broth dilution assay; format: functional; settings: NCIM 2200, 24 h
Escherichia coli [34] = assay: Antibacterial activity against Escherichia coli NCIM 2065 after 24 hr by broth dilution assay; format: functional; settings: NCIM 2065, 24 h
Lipomyces lipofer [35] = assay: Antifungal activity against Lipomyces lipofer NCIM 3252 after 72 hr by broth dilution assay; format: functional; settings: NCIM 3252, 72 h
Candida albicans [36] = assay: Antifungal activity against Candida albicans NCIM 3471 after 72 hr by broth dilution assay; format: functional; settings: NCIM 3471, 72 h
Rhodotorula mucilaginosa [37] = assay: Antifungal activity against Rhodotorula mucilaginosa NCIM 3174 after 72 hr by broth dilution assay; format: functional; settings: NCIM 3174, 72 h
Aspergillus flavus [38] = assay: Antifungal activity against Aspergillus flavus NCIM 535 after 72 hr by broth dilution assay; format: functional; settings: NCIM 535, 72 h
Aspergillus niger [39] = assay: Antifungal activity against Aspergillus niger NCIM 1196 after 72 hr by broth dilution assay; format: functional; settings: NCIM 1196, 72 h
Penicillium chrysogenum [40] = assay: Antifungal activity against Penicillium chrysogenum NCIM 707 after 72 hr by broth dilution assay; format: functional; settings: NCIM 707, 72 h
Streptomyces albus [41] = assay: Antibacterial activity against Streptomyces albus NCIM 2178 after 24 hr by broth dilution assay; format: functional; settings: NCIM 2178, 24 h
Bacillus cereus [42] = assay: Antibacterial activity against Bacillus cereus NCIM 2155 after 24 hr by broth dilution assay; format: functional; settings: NCIM 2155, 24 h

**Q.** Which results are given for `Clc1ccccc1C(c1ccccc1)(c1ccccc1)n1ccnc1` [CLOTRIMAZOLE]?
**A.** zone of inhibition at 10 µg/disc (Candida albicans [1]): 18 mm; zone of inhibition at 10 µg/disc (Rhodotorula mucilaginosa [2]): 17 mm; zone of inhibition at 10 µg/disc (Aspergillus flavus [3]): 16 mm; zone of inhibition at 10 µg/disc (Aspergillus niger [4]): 16 mm; zone of inhibition at 10 µg/disc (Penicillium chrysogenum [5]): 21 mm; zone of inhibition at 10 µg/disc (Lipomyces lipofer [6]): 18 mm

**Q.** `Cc1ccc2nc3[nH]c(=O)[nH]c(=O)c3cc2c1` was tested. Which zone of inhibition at 1000 µg/disc (Lipomyces lipofer [7]) did it give?
**A.** 13 mm

**Q.** And the zone of inhibition at 500 µg/disc (Lipomyces lipofer [8])?
**A.** 11 mm

**Q.** And the zone of inhibition at 1000 µg/disc (Candida albicans [9])?
**A.** 10 mm

**Q.** And the zone of inhibition at 500 µg/disc (Candida albicans [10])?
**A.** 8 mm

**Q.** What about the zone of inhibition at 1000 µg/disc (Rhodotorula mucilaginosa [11]) of the same molecule?
**A.** 13 mm

**Q.** And the zone of inhibition at 500 µg/disc (Rhodotorula mucilaginosa [12])?
**A.** 9 mm

**Q.** What about the zone of inhibition at 1000 µg/disc (Aspergillus flavus [13]) of the same molecule?
**A.** 10 mm

**Q.** And the zone of inhibition at 500 µg/disc (Aspergillus flavus [14])?
**A.** 9 mm

**Q.** What about the zone of inhibition at 1000 µg/disc (Aspergillus niger [15]) of the same molecule?
**A.** 11 mm

**Q.** And the “diameter of the inhibition zone (DIZ)” value (Aspergillus niger [16])?
**A.** inactive

**Q.** And the zone of inhibition at 1000 µg/disc (Penicillium chrysogenum [17])?
**A.** 11 mm

**Q.** What about the zone of inhibition at 500 µg/disc (Penicillium chrysogenum [18]) of the same molecule?
**A.** 10 mm

**Q.** What about the zone of inhibition at 1000 µg/disc (Streptomyces albus [19]) of the same molecule?
**A.** 9 mm

**Q.** What about the “diameter of the inhibition zone (DIZ)” value (Streptomyces albus [20]) of the same molecule?
**A.** inactive

**Q.** And the zone of inhibition at 1000 µg/disc (Bacillus cereus [21])?
**A.** 13 mm

**Q.** And the zone of inhibition at 500 µg/disc (Bacillus cereus [22])?
**A.** 11 mm

**Q.** What about the zone of inhibition at 1000 µg/disc (Bacillus subtilis [23]) of the same molecule?
**A.** 11 mm

**Q.** What about the zone of inhibition at 500 µg/disc (Bacillus subtilis [24]) of the same molecule?
**A.** 9 mm

**Q.** What about the zone of inhibition at 1000 µg/disc (Klebsiella aerogenes [25]) of the same molecule?
**A.** 11 mm

**Q.** And the zone of inhibition at 500 µg/disc (Klebsiella aerogenes [26])?
**A.** 10 mm

**Q.** And the zone of inhibition at 1000 µg/disc (Pseudomonas aeruginosa [27])?
**A.** 17 mm

**Q.** What about the zone of inhibition at 500 µg/disc (Pseudomonas aeruginosa [28]) of the same molecule?
**A.** 16 mm

**Q.** What about the zone of inhibition at 1000 µg/disc (Escherichia coli [29]) of the same molecule?
**A.** 12 mm

**Q.** What about the “diameter of the inhibition zone (DIZ)” value (Escherichia coli [30]) of the same molecule?
**A.** inactive

**Q.** And the MIC (Bacillus subtilis [31])?
**A.** 15.6 µg/mL (≈ 68.7 µM)

**Q.** And the MIC (Klebsiella aerogenes [32])?
**A.** 7.8 µg/mL (≈ 34.3 µM)

**Q.** And the MIC (Pseudomonas aeruginosa [33])?
**A.** 3.9 µg/mL (≈ 17.2 µM)

**Q.** What about the MIC (Escherichia coli [34]) of the same molecule?
**A.** 7.8 µg/mL (≈ 34.3 µM)

**Q.** And the MIC (Lipomyces lipofer [35])?
**A.** 15.6 µg/mL (≈ 68.7 µM)

**Q.** And the MIC (Candida albicans [36])?
**A.** 15.6 µg/mL (≈ 68.7 µM)

**Q.** What about the MIC (Rhodotorula mucilaginosa [37]) of the same molecule?
**A.** 7.8 µg/mL (≈ 34.3 µM)

**Q.** What about the MIC (Aspergillus flavus [38]) of the same molecule?
**A.** 7.8 µg/mL (≈ 34.3 µM)

**Q.** And the MIC (Aspergillus niger [39])?
**A.** 31.2 µg/mL (≈ 137 µM)

**Q.** And the MIC (Penicillium chrysogenum [40])?
**A.** 15.6 µg/mL (≈ 68.7 µM)

**Q.** And the MIC (Streptomyces albus [41])?
**A.** 62.5 µg/mL (≈ 275 µM)

**Q.** And the MIC (Bacillus cereus [42])?
**A.** 7.8 µg/mL (≈ 34.3 µM)
